Experimental data taken from publication PMC9206137, “Synergistic anti-SARS-CoV-2 activity of repurposed anti-parasitic drug combinations” (BMC Pharmacology & Toxicology, 2022).
Values joined by “and” are separate entries in the source; they are usually repeats but may differ in a detail not shown here. Equal entries are not always repeated. Where two headings read alike, the source gives them in different places.

Assays:
Vero E6 cells = experiment: Cell viability assay (MTT) in Vero E6 cells; details: for %cell viability / cell viability: replicates; for cell viability: Vero E6 cells
Protocol: (§1) Subsequently, the cell viability was assessed using MTT dyes (Invitrogen) in duplicate (Supplementary file 1). The procedure was described elsewhere. The viability of drug-treated cells was expressed as percent cell viability relative to 0.5% DMSO-treated cells.

SARS-CoV-2 [1] = experiment: Antiviral activity against SARS-CoV-2 in Vero E6 cells, one-step qRT-PCR (single drugs, two-drug combinations, synergy analysis); details: for %inhibition (qRT-PCR) / % inhibition: replicates; for % inhibition: Vero E6 cells
SARS-CoV-2 [2] = details: cited from earlier work
[3] = calculated based on lung: plasma ratio in cattle; cited from earlier work
[4] = humans; oral 200 μg/kg; mean ± SD; cited from earlier work
Calu-3 cells = experiment: Cell viability assay (MTT) in Calu-3 cells; details: for %cell viability / cell viability: replicates; for cell viability: Calu-3 cells
Protocol: as §1

[5] = tested on: plasma nonstructural protein 1; details: dengue patients; cited from earlier work
SARS-CoV-2 [6] = experiment: Antiviral activity against SARS-CoV-2 in Vero E6 cells, plaque assay; type: cell-based; details: Vero E6; for %inhibition (plaque assay): replicates
SARS-CoV-2 [7] = experiment: microbe, parasite or virus in culture; type: cell-based; details: for %inhibition (plaque assay) / % inhibition: replicates; for % inhibition: Calu-3 cells
dengue virus = details: read-out: IC50 against dengue virus, cited from earlier work

In the case of ivermectin, the CC50 (Vero E6 cells; Vero E6, MTT, 48 hours) is reported as 10.6 µM, the “%cell viability” value (Vero E6 cells; Vero E6, ivermectin 0.15625 uM) is reported as 102.24% and the “%cell viability” value (Vero E6 cells; Vero E6, ivermectin 0.3125 uM) is reported as 100.47% and 100.17%. The “%cell viability” value (Vero E6 cells; Vero E6, ivermectin 0.625 uM) was 102.19%, the “%cell viability” value (Vero E6 cells; Vero E6, ivermectin 1.25 uM) was 100.11% and 101.75% and the “%cell viability” value (Vero E6 cells; Vero E6, ivermectin 2.5 uM) was 99.32%. The “%cell viability” value (Vero E6 cells; Vero E6, ivermectin 5 uM) was 83.87% and 88.89%, the “%cell viability” value (Vero E6 cells; Vero E6, ivermectin 10 uM) was 55.14% and 53.62% and 46.86% and the “%cell viability” value (Vero E6 cells; Vero E6, ivermectin 20 uM) was 21.86% and 15.62% and 14.14%. The “%cell viability” value (Vero E6 cells; Vero E6, ivermectin 40 uM) was 12.31% and 10.14% and 11.10%, the cell viability (Vero E6 cells; Ivermectin 0.3 uM alone) was 100.47 and 100.17 and the cell viability (Vero E6 cells; Ivermectin 0.6 uM alone) was 102.19. The cell viability (Vero E6 cells; Ivermectin 1.2 uM alone) was 100.11 and 101.75, the cell viability (Vero E6 cells; Ivermectin 2.4 uM alone) was 99.32 and the “%inhibition (qRT-PCR)” value (SARS-CoV-2 [1]; Vero E6, ivermectin 0.15625 uM) was 20.77% and 18.77% and 17.59%. The “%inhibition (qRT-PCR)” value (SARS-CoV-2 [1]; Vero E6, ivermectin 0.3125 uM) was 22.09% and 7.36% and 10.53%, the “%inhibition (qRT-PCR)” value (SARS-CoV-2 [1]; Vero E6, ivermectin 0.625 uM) was 17.18% and 18.46% and 16.20% and the “%inhibition (qRT-PCR)” value (SARS-CoV-2 [1]; Vero E6, ivermectin 1.25 uM) was 48.83% and 48.22% and 45.15%. The “%inhibition (qRT-PCR)” value (SARS-CoV-2 [1]; Vero E6, ivermectin 2.5 uM) was 68.53% and 77.48% and 81.10%, the “%inhibition (qRT-PCR)” value (SARS-CoV-2 [1]; Vero E6, ivermectin 5 uM) was 80.18% and 78.28% and 78.87% and the “% inhibition” value (SARS-CoV-2 [1]; Ivermectin 0.3 uM alone) was 24.74% and 21.54% and 19.89%. For the same substance, the “% inhibition” value (SARS-CoV-2 [1]; Ivermectin 0.6 uM alone) was 40.13% and 29.29% and 31.22%, the “% inhibition” value (SARS-CoV-2 [1]; Ivermectin 1.2 uM alone) was 46.41% and 46.78% and 47.88% and the “% inhibition” value (SARS-CoV-2 [1]; Ivermectin 2.4 uM alone) was 68.57% and 80.79% and 75.01%. The IC50 (SARS-CoV-2 [1]; read-out: IC50 (μM) qRT-PCR, Vero E6, MOI 0.01, 48 hours, single drug) was 1.27 µM, the “reduction in SARS-CoV-2 replication in vitro” value (SARS-CoV-2 [2]) was “up to 5000 fold” and the “predicted maximum lung concentration” value [3] was 0.0873 µM. For the same substance, the maximum plasma concentration [4] was 0.049 ± 0.02 µM, the CC50 (Calu-3 cells; Calu-3, MTT, 48 hours) was 3.1 µM and the “%cell viability” value (Calu-3 cells; Calu-3, ivermectin 0.048828 uM) was 101.77% and 102.10%. The “%cell viability” value (Calu-3 cells; Calu-3, ivermectin 0.195313 uM) was 103.33%, the “%cell viability” value (Calu-3 cells; Calu-3, ivermectin 0.390625 uM) was 106.67% and 102.92% and the “%cell viability” value (Calu-3 cells; Calu-3, ivermectin 0.78125 uM) was 103.89%. The “%cell viability” value (Calu-3 cells; Calu-3, ivermectin 1.5625 uM) was 100.11% and 106.94%, the “%cell viability” value (Calu-3 cells; Calu-3, ivermectin 3.125 uM) was 41.94% and 53.47% and the “%cell viability” value (Calu-3 cells; Calu-3, ivermectin 6.25 uM) was 6.67%. For the same substance, the “%cell viability” value (Calu-3 cells; Calu-3, ivermectin 12.5 uM) was 6.53% and 6.39%, the cell viability (Calu-3 cells; Ivermectin 0.05 uM alone) was 100.07 and 99.88 and the cell viability (Calu-3 cells; Ivermectin 0.10 uM alone) was 99.91 and 100.11. The cell viability (Calu-3 cells; Ivermectin 0.20 uM alone) was 101.94 and 95.31, the cell viability (Calu-3 cells; Ivermectin 0.40 uM alone) was 94.38 and 100.45 and the “level of plasma nonstructural protein 1” value [5] was “reduce”. The IC50 (SARS-CoV-2 [6]; MOI 0.01, 48 hours, single drug) was 1.23 µM, the “%inhibition (plaque assay)” value (SARS-CoV-2 [6]; ivermectin 0.15625 uM) was 7.34% and 7.50% and 7.15% and the “%inhibition (plaque assay)” value (SARS-CoV-2 [6]; ivermectin 0.3125 uM) was 29.78% and 21.00% and 25.31%. The “%inhibition (plaque assay)” value (SARS-CoV-2 [6]; ivermectin 0.625 uM) was 30.26% (2×) and 32.64%, the “%inhibition (plaque assay)” value (SARS-CoV-2 [6]; ivermectin 1.25 uM) was 52.64% and 56.27% and 48.59% and the “%inhibition (plaque assay)” value (SARS-CoV-2 [6]; ivermectin 2.5 uM) was 63.02% and 62.70% and 66.77%. The “%inhibition (plaque assay)” value (SARS-CoV-2 [6]; ivermectin 5 uM) was 78.39% and 83.51% and 83.02%, the IC50 (SARS-CoV-2 [7]; Calu-3, 500 TCID50, plaque assay, single drug) was 0.2 µM and the “%inhibition (plaque assay)” value (SARS-CoV-2 [7]; Calu-3, ivermectin 0.048828 uM) was 7.34% and 7.50% and 6.92%. For the same substance, the “%inhibition (plaque assay)” value (SARS-CoV-2 [7]; Calu-3, ivermectin 0.195313 uM) was 43.75% and 44.69% and 42.02%, the “%inhibition (plaque assay)” value (SARS-CoV-2 [7]; Calu-3, ivermectin 0.390625 uM) was 55.86% and 56.30% and 55.45% and the “%inhibition (plaque assay)” value (SARS-CoV-2 [7]; Calu-3, ivermectin 0.78125 uM) was 63.14% and 86.03% and 74.50%. The “%inhibition (plaque assay)” value (SARS-CoV-2 [7]; Calu-3, ivermectin 1.5625 uM) was 90.72% and 80.25% and 82.92%, the “%inhibition (plaque assay)” value (SARS-CoV-2 [7]; Calu-3, ivermectin 3.125 uM) was 98.34% and 97.94% and 90.53% and the “% inhibition” value (SARS-CoV-2 [7]; Ivermectin 0.05 uM alone) was 26.67% (2×) and 33.33%. For the same substance, the “% inhibition” value (SARS-CoV-2 [7]; Ivermectin 0.10 uM alone) was 33.33% and 26.67% and 40.00%, the “% inhibition” value (SARS-CoV-2 [7]; Ivermectin 0.20 uM alone) was 40.00% and 66.67% and 53.33% and the “% inhibition” value (SARS-CoV-2 [7]; Ivermectin 0.40 uM alone) was 53.33% and 73.33% and 66.67%. The IC50 (dengue virus; Huh-7 cells) was roughly 4.64 µM and the IC50 (dengue virus; immortalized hepatocyte-like cell line) was roughly 5.33 µM.
